Data from ChEMBL document CHEMBL3885861, “Open TG-GATES”.

Species on record: Rattus norvegicus
Assay: Open TG-GATES - Regimen: Single
Format: toxicity, organism-based, Sprague-Dawley
Parameters: regimen Single, gender Male, age 6 weeks
Settings: in vivo, po, route gavage; for KIDNEY_L / KIDNEY_R / KIDNEY_TOTAL: tissue Kidney; for LIVER: tissue Liver; for ALP / ALT / CRE / DBIL / GLC / IP / K / Na / RALB / TBIL / TG / TP / gamma-GTP / BUN / PL: tissue Plasma
[1] = 0 mg/kg, 3 h, dose level Control
[2] = 0 mg/kg, 3 h, tissue Blood, dose level Control
[3] = 0 mg/kg, 6 h, dose level Control
[4] = 0 mg/kg, 6 h, tissue Blood, dose level Control
[5] = 0 mg/kg, 9 h, dose level Control
[6] = 0 mg/kg, 9 h, tissue Blood, dose level Control
[7] = 0 mg/kg, 24 h, dose level Control
[8] = 0 mg/kg, 24 h, tissue Blood, dose level Control
[9] = 3 mg/kg, 3 h, tissue Blood, dose level Low
[10] = 3 mg/kg, 6 h, tissue Blood, dose level Low
[11] = 3 mg/kg, 9 h, tissue Blood, dose level Low
[12] = 3 mg/kg, 24 h, tissue Blood, dose level Low

Structure (SMILES): CNCCC(Oc1ccc(C(F)(F)F)cc1)c1ccccc1.Cl (centres undefined) [FLUOXETINE HYDROCHLORIDE]
- TERMINAL_BW [1]: 216.5 g
- Bas [2]: 0%
- Eos [2]: 1%
- Ht [2]: 41.2%
- Lym [2]: 72.6%
- MCHC [2]: 32.1%
- Ret [2]: 8.8%
- WBC [2]: 83.4 x10_2/uL
- KIDNEY_L [1]: 0.9 g
- KIDNEY_R [1]: 0.9 g
- KIDNEY_TOTAL [1]: 1.9 g
- LIVER [1]: 10.4 g
- ALP [1]: 1343.2 IU/L
- ALT [1]: 37.8 IU/L
- CRE [1]: 0.4 mg/dL
- DBIL [1]: 0.014 mg/dL
- GLC [1]: 198 mg/dL
- IP [1]: 10.1 mg/dL
- K [1]: 4.9 meq/L
- Na [1]: 138.2 meq/L
- RALB [1]: 4.1 g/dL
- TBIL [1]: 0.056 mg/dL
- TG [1]: 81.8 mg/dL
- TP [1]: 5.7 g/dL
- gamma-GTP [1]: 0.4 IU/L
- TERMINAL_BW [3]: 217.6 g
- Bas [4]: 0%
- Eos [4]: 1%
- Ht [4]: 41.1%
- Lym [4]: 72%
- MCHC [4]: 32.2%
- Ret [4]: 6.9%
- WBC [4]: 98.6 x10_2/uL
- KIDNEY_L [3]: 1 g
- KIDNEY_R [3]: 1 g
- KIDNEY_TOTAL [3]: 2.1 g
- LIVER [3]: 9.3 g
- ALP [3]: 1497.6 IU/L
- ALT [3]: 35 IU/L
- BUN [3]: 9.2 mg/dL
- CRE [3]: 0.4 mg/dL
- DBIL [3]: 0.008 mg/dL
- GLC [3]: 191 mg/dL
- IP [3]: 9.8 mg/dL
- K [3]: 5 meq/L
- Na [3]: 137.3 meq/L
- PL [3]: 131.2 mg/dL
- RALB [3]: 3.8 g/dL
- TBIL [3]: 0.048 mg/dL
- TG [3]: 45.8 mg/dL
- TP [3]: 5.3 g/dL
- gamma-GTP [3]: 1 IU/L
- TERMINAL_BW [5]: 216.1 g
- Bas [6]: 0%
- Eos [6]: 1%
- Ht [6]: 40.2%
- Lym [6]: 66.4%
- MCHC [6]: 32.5%
- Ret [6]: 8%
- WBC [6]: 106.4 x10_2/uL
- KIDNEY_L [5]: 1 g
- KIDNEY_R [5]: 1 g
- KIDNEY_TOTAL [5]: 2 g
- LIVER [5]: 9.2 g
- ALP [5]: 1190.2 IU/L
- ALT [5]: 28.6 IU/L
- CRE [5]: 0.4 mg/dL
- DBIL [5]: 0.01 mg/dL
- GLC [5]: 188.2 mg/dL
- IP [5]: 10.2 mg/dL
- K [5]: 5.1 meq/L
- Na [5]: 139 meq/L
- PL [5]: 139.8 mg/dL
- RALB [5]: 3.8 g/dL
- TBIL [5]: 0.042 mg/dL
- TG [5]: 63 mg/dL
- TP [5]: 5.3 g/dL
- gamma-GTP [5]: 0.4 IU/L
- TERMINAL_BW [7]: 234.5 g
- Bas [8]: 0%
- Eos [8]: 1%
- Ht [8]: 39.6%
- Lym [8]: 76.4%
- MCHC [8]: 32.7%
- Ret [8]: 7%
- WBC [8]: 121.8 x10_2/uL
- KIDNEY_L [7]: 1 g
- KIDNEY_R [7]: 1 g
- KIDNEY_TOTAL [7]: 2 g
- ALP [7]: 1409.4 IU/L
- ALT [7]: 36.6 IU/L
- CRE [7]: 0.4 mg/dL
- DBIL [7]: 0.012 mg/dL
- GLC [7]: 194.6 mg/dL
- IP [7]: 8.1 mg/dL
- K [7]: 5.1 meq/L
- Na [7]: 138.3 meq/L
- RALB [7]: 4 g/dL
- TBIL [7]: 0.036 mg/dL
- TG [7]: 133.6 mg/dL
- TP [7]: 5.6 g/dL
- gamma-GTP [7]: 1 IU/L
- TERMINAL_BW (3 mg/kg, 3 h, dose level Low): 213 g
- Bas [9]: 0%
- Eos [9]: 1%
- Ht [9]: 41.8%
- Lym [9]: 76.6%
- MCHC [9]: 32.2%
- Ret [9]: 7.7%
- WBC [9]: 94.4 x10_2/uL
- KIDNEY_L (3 mg/kg, 3 h, dose level Low): 0.9 g
- KIDNEY_R (3 mg/kg, 3 h, dose level Low): 0.9 g
- KIDNEY_TOTAL (3 mg/kg, 3 h, dose level Low): 1.8 g
- LIVER (3 mg/kg, 3 h, dose level Low): 9.9 g
- ALP (3 mg/kg, 3 h, dose level Low): 1490.4 IU/L
- ALT (3 mg/kg, 3 h, dose level Low): 36.6 IU/L
- BUN (3 mg/kg, 3 h, dose level Low): 11.4 mg/dL
- CRE (3 mg/kg, 3 h, dose level Low): 0.4 mg/dL
- DBIL (3 mg/kg, 3 h, dose level Low): 0.012 mg/dL
- GLC (3 mg/kg, 3 h, dose level Low): 209 mg/dL
- IP (3 mg/kg, 3 h, dose level Low): 10 mg/dL
- K (3 mg/kg, 3 h, dose level Low): 4.5 meq/L
- Na (3 mg/kg, 3 h, dose level Low): 138 meq/L
- RALB (3 mg/kg, 3 h, dose level Low): 4.1 g/dL
- TBIL (3 mg/kg, 3 h, dose level Low): 0.042 mg/dL
- TG (3 mg/kg, 3 h, dose level Low): 85 mg/dL
- TP (3 mg/kg, 3 h, dose level Low): 5.8 g/dL
- gamma-GTP (3 mg/kg, 3 h, dose level Low): 0.2 IU/L
- TERMINAL_BW (3 mg/kg, 6 h, dose level Low): 215.1 g
- Bas [10]: 0%
- Eos [10]: 1%
- Ht [10]: 41.2%
- Lym [10]: 67.4%
- MCH [10]: 22 pg
- MCHC [10]: 32.5%
- Ret [10]: 6.8%
- WBC [10]: 80.2 x10_2/uL
- KIDNEY_L (3 mg/kg, 6 h, dose level Low): 0.9 g
- KIDNEY_R (3 mg/kg, 6 h, dose level Low): 0.9 g
- KIDNEY_TOTAL (3 mg/kg, 6 h, dose level Low): 1.8 g
- LIVER (3 mg/kg, 6 h, dose level Low): 9.5 g
- ALP (3 mg/kg, 6 h, dose level Low): 1275 IU/L
- ALT (3 mg/kg, 6 h, dose level Low): 36.8 IU/L
- BUN (3 mg/kg, 6 h, dose level Low): 10.2 mg/dL
- CRE (3 mg/kg, 6 h, dose level Low): 0.4 mg/dL
- DBIL (3 mg/kg, 6 h, dose level Low): 0.01 mg/dL
- GLC (3 mg/kg, 6 h, dose level Low): 196 mg/dL
- IP (3 mg/kg, 6 h, dose level Low): 10.3 mg/dL
- K (3 mg/kg, 6 h, dose level Low): 4.8 meq/L
- Na (3 mg/kg, 6 h, dose level Low): 137.7 meq/L
- RALB (3 mg/kg, 6 h, dose level Low): 3.9 g/dL
- TBIL (3 mg/kg, 6 h, dose level Low): 0.046 mg/dL
- TG (3 mg/kg, 6 h, dose level Low): 100 mg/dL
- TP (3 mg/kg, 6 h, dose level Low): 5.4 g/dL
- gamma-GTP (3 mg/kg, 6 h, dose level Low): 1 IU/L
- TERMINAL_BW (3 mg/kg, 9 h, dose level Low): 212.9 g
- Bas [11]: 0%
- Eos [11]: 1%
- Ht [11]: 40.1%
- Lym [11]: 69.2%
- MCHC [11]: 32.4%
- Ret [11]: 6.5%
- WBC [11]: 79.8 x10_2/uL
- KIDNEY_L (3 mg/kg, 9 h, dose level Low): 0.9 g
- KIDNEY_R (3 mg/kg, 9 h, dose level Low): 0.9 g
- KIDNEY_TOTAL (3 mg/kg, 9 h, dose level Low): 1.8 g
- LIVER (3 mg/kg, 9 h, dose level Low): 9.3 g
- ALP (3 mg/kg, 9 h, dose level Low): 1183.8 IU/L
- ALT (3 mg/kg, 9 h, dose level Low): 27.6 IU/L
- BUN (3 mg/kg, 9 h, dose level Low): 11.2 mg/dL
- CRE (3 mg/kg, 9 h, dose level Low): 0.4 mg/dL
- DBIL (3 mg/kg, 9 h, dose level Low): 0.01 mg/dL
- GLC (3 mg/kg, 9 h, dose level Low): 195.6 mg/dL
- IP (3 mg/kg, 9 h, dose level Low): 10.2 mg/dL
- K (3 mg/kg, 9 h, dose level Low): 5 meq/L
- Na (3 mg/kg, 9 h, dose level Low): 139.1 meq/L
- PL (3 mg/kg, 9 h, dose level Low): 136.8 mg/dL
- RALB (3 mg/kg, 9 h, dose level Low): 3.9 g/dL
- TBIL (3 mg/kg, 9 h, dose level Low): 0.036 mg/dL
- TG (3 mg/kg, 9 h, dose level Low): 59.2 mg/dL
- TP (3 mg/kg, 9 h, dose level Low): 5.5 g/dL
- gamma-GTP (3 mg/kg, 9 h, dose level Low): 0.4 IU/L
- TERMINAL_BW (3 mg/kg, 24 h, dose level Low): 223.4 g
- Bas [12]: 0%
- Eos [12]: 1%
- Ht [12]: 40.2%
- Lym [12]: 72%
- MCHC [12]: 32.5%
- Ret [12]: 7.1%
- WBC [12]: 86.8 x10_2/uL
- KIDNEY_L (3 mg/kg, 24 h, dose level Low): 1 g
- KIDNEY_R (3 mg/kg, 24 h, dose level Low): 1 g
- KIDNEY_TOTAL (3 mg/kg, 24 h, dose level Low): 2 g
- LIVER (3 mg/kg, 24 h, dose level Low): 10.5 g
- ALP (3 mg/kg, 24 h, dose level Low): 1597.4 IU/L
- ALT (3 mg/kg, 24 h, dose level Low): 35.6 IU/L
- BUN (3 mg/kg, 24 h, dose level Low): 16.4 mg/dL
- CRE (3 mg/kg, 24 h, dose level Low): 0.4 mg/dL
- DBIL (3 mg/kg, 24 h, dose level Low): 0.01 mg/dL
- GLC (3 mg/kg, 24 h, dose level Low): 194.8 mg/dL
- IP (3 mg/kg, 24 h, dose level Low): 8 mg/dL
- K (3 mg/kg, 24 h, dose level Low): 4.9 meq/L
- Na (3 mg/kg, 24 h, dose level Low): 139.1 meq/L
- RALB (3 mg/kg, 24 h, dose level Low): 3.9 g/dL
- TBIL (3 mg/kg, 24 h, dose level Low): 0.034 mg/dL
- TG (3 mg/kg, 24 h, dose level Low): 124.2 mg/dL
- TP (3 mg/kg, 24 h, dose level Low): 5.6 g/dL
- gamma-GTP (3 mg/kg, 24 h, dose level Low): 1 IU/L
- TERMINAL_BW (10 mg/kg, 3 h, dose level Middle): 225.1 g
